Measurements from PubChem BioAssay AID1259407 (Chemical Carcinogenesis Research Information System (CCRIS), 2018).
Calls of active or inactive are those of the source. The rule behind the calls is not given here.

Tested on: CCRIS mutagenicity, Ames/micronucleus/aberration tests
Test: CCRIS mutagenicity studies
[1] = Test System: AMES SALMONELLA TYPHIMURIUM, Strain/Indicator: TA100, Metabolic Activation: NONE, Method: PREINCUBATION

CCCCC(CC)CNCC(CC)CCCC (stereo not drawn)
mutagenic call (Test System: AMES SALMONELLA TYPHIMURIUM, Strain/Indicator: TA97, Metabolic Activation: HAMSTER, LIVER, S-9, AROCLOR 1254 (10%), Method: PREINCUBATION): inactive; negative
mutagenic call (Test System: AMES SALMONELLA TYPHIMURIUM, Strain/Indicator: TA97, Metabolic Activation: HAMSTER, LIVER, S-9, AROCLOR 1254 (30%), Method: PREINCUBATION): inactive; negative
mutagenic call (Test System: AMES SALMONELLA TYPHIMURIUM, Strain/Indicator: TA97, Metabolic Activation: NONE, Method: PREINCUBATION): inactive; negative
mutagenic call (Test System: AMES SALMONELLA TYPHIMURIUM, Strain/Indicator: TA97, Metabolic Activation: RAT, LIVER, S-9, AROCLOR 1254 (10%), Method: PREINCUBATION): inactive; negative
mutagenic call (Test System: AMES SALMONELLA TYPHIMURIUM, Strain/Indicator: TA97, Metabolic Activation: RAT, LIVER, S-9, AROCLOR 1254 (30%), Method: PREINCUBATION): inactive; negative
mutagenic call (Test System: AMES SALMONELLA TYPHIMURIUM, Strain/Indicator: TA98, Metabolic Activation: HAMSTER, LIVER, S-9, AROCLOR 1254 (10%), Method: PREINCUBATION): inactive; negative
mutagenic call (Test System: AMES SALMONELLA TYPHIMURIUM, Strain/Indicator: TA98, Metabolic Activation: HAMSTER, LIVER, S-9, AROCLOR 1254 (30%), Method: PREINCUBATION): inactive; negative
mutagenic call (Test System: AMES SALMONELLA TYPHIMURIUM, Strain/Indicator: TA98, Metabolic Activation: NONE, Method: PREINCUBATION): inactive; negative
mutagenic call (Test System: AMES SALMONELLA TYPHIMURIUM, Strain/Indicator: TA98, Metabolic Activation: RAT, LIVER, S-9, AROCLOR 1254 (10%), Method: PREINCUBATION): inactive; negative
mutagenic call (Test System: AMES SALMONELLA TYPHIMURIUM, Strain/Indicator: TA98, Metabolic Activation: RAT, LIVER, S-9, AROCLOR 1254 (30%), Method: PREINCUBATION): inactive; negative
mutagenic call (Test System: AMES SALMONELLA TYPHIMURIUM, Strain/Indicator: TA100, Metabolic Activation: HAMSTER, LIVER, S-9, AROCLOR 1254 (10%), Method: PREINCUBATION): inactive; negative
mutagenic call (Test System: AMES SALMONELLA TYPHIMURIUM, Strain/Indicator: TA100, Metabolic Activation: HAMSTER, LIVER, S-9, AROCLOR 1254 (30%), Method: PREINCUBATION): inactive; negative
mutagenic call [1]: inactive; negative
mutagenic call (Test System: AMES SALMONELLA TYPHIMURIUM, Strain/Indicator: TA100, Metabolic Activation: RAT, LIVER, S-9, AROCLOR 1254 (10%), Method: PREINCUBATION): inactive; negative
mutagenic call (Test System: AMES SALMONELLA TYPHIMURIUM, Strain/Indicator: TA100, Metabolic Activation: RAT, LIVER, S-9, AROCLOR 1254 (30%), Method: PREINCUBATION): inactive; negative
mutagenic call (Test System: AMES SALMONELLA TYPHIMURIUM, Strain/Indicator: TA1535, Metabolic Activation: HAMSTER, LIVER, S-9, AROCLOR 1254 (10%), Method: PREINCUBATION): inactive; negative
mutagenic call (Test System: AMES SALMONELLA TYPHIMURIUM, Strain/Indicator: TA1535, Metabolic Activation: HAMSTER, LIVER, S-9, AROCLOR 1254 (30%), Method: PREINCUBATION): inactive; negative
mutagenic call (Test System: AMES SALMONELLA TYPHIMURIUM, Strain/Indicator: TA1535, Metabolic Activation: NONE, Method: PREINCUBATION): inactive; negative
mutagenic call (Test System: AMES SALMONELLA TYPHIMURIUM, Strain/Indicator: TA1535, Metabolic Activation: RAT, LIVER, S-9, AROCLOR 1254 (10%), Method: PREINCUBATION): inactive; negative
mutagenic call (Test System: AMES SALMONELLA TYPHIMURIUM, Strain/Indicator: TA1535, Metabolic Activation: RAT, LIVER, S-9, AROCLOR 1254 (30%), Method: PREINCUBATION): inactive; negative

c1cc(OCC2CO2)ccc1Cc1ccc(OCC2CO2)cc1 (stereo not drawn)
mutagenic call (End Point: In vitro micronucleus, Test System: HepG2 cells, Metabolic Activation: None): inactive; negative

Cc1c(N)nc(C(CC(N)=O)NCC(N)C(N)=O)nc1C(=O)NC(C(=O)NC(C)C(O)C(C)C(=O)NC(C(=O)NCCc1nc(-c2nc(C(=O)O)cs2)cs1)C(C)O)C(OC1OC(CO)C(O)C(O)C1OC1OC(CO)C(O)C(OC(N)=O)C1O)c1cnc[nH]1 (stereo not drawn)
mutagenic call (Test System: AMES SALMONELLA TYPHIMURIUM, Strain/Indicator: TA102, Metabolic Activation: NONE, Method: PREINCUBATION): inactive; negative

CCC1CCC(CCC(=O)[O-])C1.CCC1CCC(CCC(=O)[O-])C1.[Co+2] (stereo not drawn)
mutagenic call (Test System: AMES SALMONELLA TYPHIMURIUM, Strain/Indicator: TA98, Metabolic Activation: HAMSTER, LIVER, S-9, AROCLOR 1254 (10%), Method: STANDARD PLATE): inactive; negative
mutagenic call (Test System: AMES SALMONELLA TYPHIMURIUM, Strain/Indicator: TA98, Metabolic Activation: NONE, Method: STANDARD PLATE): inactive; negative
mutagenic call (Test System: AMES SALMONELLA TYPHIMURIUM, Strain/Indicator: TA98, Metabolic Activation: RAT, LIVER, S-9, AROCLOR 1254 (10%), Method: STANDARD PLATE): active; positive
mutagenic call (Test System: AMES SALMONELLA TYPHIMURIUM, Strain/Indicator: TA100, Metabolic Activation: HAMSTER, LIVER, S-9, AROCLOR 1254 (10%), Method: STANDARD PLATE): inactive; negative
mutagenic call (Test System: AMES SALMONELLA TYPHIMURIUM, Strain/Indicator: TA100, Metabolic Activation: NONE, Method: STANDARD PLATE): inactive; negative
mutagenic call (Test System: AMES SALMONELLA TYPHIMURIUM, Strain/Indicator: TA100, Metabolic Activation: RAT, LIVER, S-9, AROCLOR 1254 (10%), Method: STANDARD PLATE): inactive; negative
mutagenic call (Test System: AMES SALMONELLA TYPHIMURIUM, Strain/Indicator: TA1537, Metabolic Activation: HAMSTER, LIVER, S-9, AROCLOR 1254 (10%), Method: STANDARD PLATE): inactive; negative
mutagenic call (Test System: AMES SALMONELLA TYPHIMURIUM, Strain/Indicator: TA1537, Metabolic Activation: NONE, Method: STANDARD PLATE): inactive; negative
mutagenic call (Test System: AMES SALMONELLA TYPHIMURIUM, Strain/Indicator: TA1537, Metabolic Activation: RAT, LIVER, S-9, AROCLOR 1254 (10%), Method: STANDARD PLATE): inactive; negative
mutagenic call (Test System: AMES SALMONELLA TYPHIMURIUM, Strain/Indicator: TA1538, Metabolic Activation: HAMSTER, LIVER, S-9, AROCLOR 1254 (10%), Method: STANDARD PLATE): inactive; negative
mutagenic call (Test System: AMES SALMONELLA TYPHIMURIUM, Strain/Indicator: TA1538, Metabolic Activation: NONE, Method: STANDARD PLATE): inactive; negative
mutagenic call (Test System: AMES SALMONELLA TYPHIMURIUM, Strain/Indicator: TA1538, Metabolic Activation: RAT, LIVER, S-9, AROCLOR 1254 (10%), Method: STANDARD PLATE): active; positive
mutagenic call (Test System: MOUSE LYMPHOMA, Strain/Indicator: L5178Y (TK+/TK-), Metabolic Activation: NONE, Method: SUSPENSION/PLATE): inactive; negative. reevaluation of results: negative
mutagenic call (Test System: MOUSE LYMPHOMA, Strain/Indicator: L5178Y (TK+/TK-), Metabolic Activation: RAT, LIVER, S-9, AROCLOR 1254, Method: SUSPENSION/PLATE): inactive; negative. reevaluation of results: equivocal

Cc1cc(=O)oc2c3c(ccc12)C1(C)OOC1(C)O3 (stereo not drawn)
mutagenic call [1]: active; positive

CC(C)C(=O)N=c1sn(C(=O)C(C)C)c2ccc([N+](=O)[O-])cc12
mutagenic call (Test System: AMES SALMONELLA TYPHIMURIUM, Strain/Indicator: TA100, Metabolic Activation: S-9, Method: STANDARD PLATE): active; positive
